Consider 8 compounds from paper PMC7567501 (Journal of Enzyme Inhibition and Medicinal Chemistry, 2019).

SMILES strings stand for the structures. Where two headings read alike, the source gives them in different places.

Data set [1] has as its target T1, Aβ1-42 (Homo sapiens, UniProt P05067).
T1 construct: Amyloid β-peptide (1–42), Aβ1-42, was purchased from GeneCust; purchased GeneCust
Nature of the data set: biochemical. The following applies: read-out: Aβ aggregation inhibition, Self-Aβ aggr. From the text: (§1) The Aβ amyloid plaques are one of the main hallmarks of AD and they result from over production and aggregation of β-amyloid peptide, which can accumulate outside the neurons, by self-mediated or Cu^2+-induced process, interfering with the synaptic impairment, neurotransmission and memory. Therefore, anti-AD drugs have been designed aimed to disrupt and disaggregate the Aβ’s fibrils into monomers, obtaining non-toxic forms of β-secretase’s products. To assess the effect of these new hybrids in the inhibition of amyloid peptide aggregation, a selection of the compounds was in vitro assayed, based on the thioflavin T (ThT) method. Indeed ThT is a histochemical dye able to create ionic or hydrophobic interactions with the peptide β–sheets, the predominant secondary structure of the amyloid fibrils in aqueous solutions[36]. This binding interactions can be monitored by fluorimetry since the presence of ThT-fibrils increases the absorbance and the emission of the ThT dye, and induces red shifts on the absorbance (from 385 to 446 nm) and emission peaks (from 445 to 485 nm)[14]. All the measurements were performed after incubation of the self-mediated and Cu^2+-induced Aβ aggregates in the presence/absence of the herein studied compounds. […]. […] This may be rationalised on the basis of their copper chelating capacity, as previously shown by other metal chelating compounds[14]^,[38]. Furthermore, despite some exceptions (e.g. 20 and 24), the increase in linker length and the chloro TAC substitution induce some small negative effects in the inhibition of Aβ self-aggregation.
(§2) For the study of the β-amyloid (Aβ) aggregation, the ThT fluorescence assay was performed using a Varian Cary Eclipse fluorimeter at the following wavelengths: excitation (446 nm) and emission (485 nm). Amyloid β-peptide (1–42), Aβ1-42, was purchased from GeneCust as a lyophilised powder stored at −20 °C. TEM assays were performed with a Hitachi H8100 transmission electron microscope with a LaB6 filament (200 kV, 10000–20000 × magnification) at MicroLab/IST.
(§3) Among all the methods to measure the aggregation of Aβ1-42, the assay based on Thioflavin T (ThT) is the standard procedure based on the fluorescence of this dye[49]^,[50]. This test is performed with Aβ1-42 peptide previously prepared by dissolving it in 1,1,1,3,3,3–hexafluoro-2-propanol (HFIP), an organic solvent useful to solubilise and monomerize the β–sheet protein aggregates and reserve them in the fridge. Films are re-dissolved in an Eppendorf tube with a fresh solution of a mixture of CH3CN/Na2CO3/NaOH, to have a stable stock solution, and afterwards, added to an optimised fibrillation phosphate buffer. The samples were prepared using MeOH (1 mg/mL) as solvent, followed by incubation in a water bath for 24 h at 37 °C with gentle shaking. After incubation, the samples were added to a 96-well plate (BD Falcon) with 180 µL of 5 µM ThT in 50 mM glycine-NaOH (pH 8.5) buffer. Blank samples were prepared for each concentration in a similar way, devoid of peptide. After 5-min incubation with the dye, the ThT fluorescence was measured at 446 nm (excitation) and 485 nm (emission).

The next data set addresses T2, AChE (Electrophorus electricus, UniProt O42275).
T2 construct: extracted from Electrophorus electricus (electric eel); purchased Sigma-Aldrich; host or cells: Electrophorus electricus (extracted)
Nature of the data set: biochemical. Also noted: species or system Electrophorus electricus (electric eel). The protocol:
The electronic spectra and the AChE inhibition assays were performed in a 1-cm path length quartz cell with a Perkin Elmer Lambda 35 spectrophotometer equipped with a temperature programmer PTP1 + 1 Peltier System (T = 25.0 ± 0.1 °C). The enzyme AChE 500 U, extracted from Electrophorus electricus (electric eel), was purchased from Sigma-Aldrich.
The enzymatic activity of AChE was determined using an adaptation of the Ellman’s method, as described previously[29]^,[32]. Firstly, a stock solution of AChE was prepared by dissolving enzyme 500 U in 10 mL of tris(hydroxymethyl)aminomethane (TRIS) buffer (50 mM, pH 8). Then, 4–(2-hydroxyethyl)-1-piperazineethanesulfonic acid (HEPES) buffer was used for further dilution of the enzyme solution therefore obtaining the final working solution of AChE. The assay solution consisted of 374 µL of HEPES buffer (50 mM and pH 8.0), a variable volume (10–50 µL) of the compound’s stock solution (1 mg/mL of MeOH), 476 µL of 3 mM bis(3-carboxy-4-nitrophenyl) disulphide (DTNB), 25 µL of AChE stock solution and the necessary amount of methanol to attain the same volume of sample mixture in a 1 mL cuvette. After mixing, samples were left to incubate for 15 min and then 75 µL of 16 mM acetylthiocholine iodide (AChI) solution was added and immediately the reaction was monitored at 405 nm for 5 min. Firstly, enzyme activity was determined by measuring the rate of enzymatic reaction in solution by recording absorbance (with or without enzyme) at 405 nm. To calculate the percent inhibition of AChE, the enzyme activity in the presence of increasing concentrations of the test compound, as well as for a blank reaction (methanol without compounds), were measured at 405 nm.
Where v1is the initial reaction rate in the presence of the inhibitor and v0 is the initial rate of the control reaction. The curves of inhibition were obtained using a plot of percentage of enzymatic inhibition versus inhibitor concentration, and a calibration curve was obtained from which the linear regression parameters were obtained.

The next data set has as its system SH-SY5Y cells. Nature of the data set: Dose-response screening for non-toxic concentrations, MTT reduction assay. Type of data set: cell-based, human. The following applies: 10 µM to 40 µM, 25 h. The protocol: The neuroprotective effect of these new multi-target drugs designed for AD was evaluated using SH-SY5Y cells treated with Aβ1-42 peptides or ascorbate/iron. For each compound we performed a dose-response curve to select a non-toxic concentration (Figure 7).
Figure 7. Dose-response screening to select non-toxic concentrations of TAC-BF hybrids. Cells were treated with varying concentration of TAC-BF conjugates (from 10 μM to 40 μM) for 25 h and cell viability was determined using the MTT reduction assay.
SH-SY5Y human neuroblastoma cell line (ATCC-CRL-2266) is grown in Dulbecco’s modified Eagle’s medium (DMEM), and were obtained from Gibco-Invitrogen (Life Technologies Ltd, UK) with 10% heat inactivated foetal calf serum, containing 50 U/mL penicillin and 50 µg/mL streptomycin, under a humidified atmosphere of 95% air- 5% CO2 at 37 °C. Cells were plated at 0.12 × 10^6 cells/mL for cell viability assay. The tested compounds (18, 19, 20, 21, 23 and 24) were dissolved in DMSO at a concentration of 50 mM and aliquots were stored at −20 °C. We performed a dose-response screening (from 10 µM to 40 µM) in order to choose the highest non-toxic concentration. As a result we selected: 20 µM final concentrations for compounds 18, 19, 20 and 23; 20 µM final concentration for compound 19; 35 µM final concentration for compounds 21 and 24. […] The compounds were added to the cell media 1 h before the incubation with Aβ1-42 or L-ascorbic acid/ferrous sulphate. Aβ1-42 or L-ascorbic acid/ferrous sulphate where incubated alone or with the compound for an additional 24 h. Aβ1-42 was prepared as 276.9 µM stock in sterile water and added to the medium at 2.5 µM final concentration. Ferrous sulphate was freshly prepared as 0.36 M stock in water and added to the medium at 500 µM final concentration. L-Ascorbic Acid was freshly prepared as 80 mM stock in water and added to the medium at 5 mM final concentration. Aβ1-42 was purchased from Bachem (Torrance, CA, USA) and ferrous sulphate and L-ascorbic acid from Sigma Chemical Co (St. Louis, MO, USA).
Cell viability was determined by the MTT (3–(4,5-dimethylthiazol-2-yl)-2,5-diphenyltetrazolium bromide) reduction test. In viable cells, the enzyme succinate dehydrogenase metabolises MTT into a formazan that absorbs light at 570 nm. Following the cell treatment protocol, the medium was aspirated and 0.5 mL MTT (0.5 mg/mL) was added to each well. The plate was then incubated at 37 °C for 1 h 30 min protected from light. At the end of the incubation period, the formazan precipitates were solubilised with 0.5 mL of acidic isopropanol (0.04 M HCl/isopropanol). The absorbance was measured at 570 nm[51]. Cell reduction ability was expressed as a percentage of untreated control cells.

The target of data set [2] is T1, Aβ1-42. The data set can be described thus: Inhibition of Cu2+-induced Aβ1-42 aggregation, thioflavin T fluorescence. Type of data set: biochemical. The note with it: Aβ42 aggregation with copper (40 µM); inhibitor 80 µM; ThT fluorescence; read-out: Aβ aggregation inhibition, Cu-ind Aβ aggr.
Text: as §1, §2
as §3, with “The samples were prepared using MeOH (1 mg/mL) as solvent, followed by incubation in a water bath for 24 h at 37 °C with gentle shaking. After incubation, the samples were added to a 96-well plate (BD Falcon) with 180 µL of 5 µM ThT in 50 mM glycine-NaOH (pH 8.5) buffer. Blank samples were prepared for each concentration in a similar way, devoid of peptide.” left out

Data set [3] can be described thus: Radical scavenging (anti-oxidant) activity, DPPH method. Type of data set: physicochemical. The note with it: DPPH in methanol, 30 min, room temperature. The protocol: A selection of the newly synthesised hybrids was tested for their radical scavenging activity (anti-oxidant activity, EC50), based on their interaction with the 2,2-diphenyl-1-picrylhydrazyl (DPPH) free radical, as previously described.
The anti-oxidant capacity or, more precisely, radical scavenging activity based on the electron and proton donation ability, was evaluated by the DPPH method previously described[29]^,[46]. To a 2.5 mL solution of DPPH (0.002%) in methanol, solutions of each compound were added in different volumes to obtain different concentrations in a 3.5 mL final volume. The samples were incubated for 30 min at room temperature. The absorbance was measured at 517 nm against the corresponding blank (methanol). The antioxidant activity was calculated by Eq. (1)^29. (1) %AA = ((ADPPH−Asample)/ADPPH) × 100
The tests were carried out in triplicate. The compound concentration providing 50% of antioxidant activity (EC50) was obtained by plotting the antioxidant activity against the compound concentration.
For orientation: DPPH is a stable violet radical that fades when it is reduced.

Where [4] appears, read: self-mediated Aβ42 aggregation without copper, inhibitor 80 µM, ThT fluorescence.
Setting [5] is: AChE from Electric eel, mean of five independent experiments, read-out: AChE inhibition IC50.

T2 sequence (O42275 24-633): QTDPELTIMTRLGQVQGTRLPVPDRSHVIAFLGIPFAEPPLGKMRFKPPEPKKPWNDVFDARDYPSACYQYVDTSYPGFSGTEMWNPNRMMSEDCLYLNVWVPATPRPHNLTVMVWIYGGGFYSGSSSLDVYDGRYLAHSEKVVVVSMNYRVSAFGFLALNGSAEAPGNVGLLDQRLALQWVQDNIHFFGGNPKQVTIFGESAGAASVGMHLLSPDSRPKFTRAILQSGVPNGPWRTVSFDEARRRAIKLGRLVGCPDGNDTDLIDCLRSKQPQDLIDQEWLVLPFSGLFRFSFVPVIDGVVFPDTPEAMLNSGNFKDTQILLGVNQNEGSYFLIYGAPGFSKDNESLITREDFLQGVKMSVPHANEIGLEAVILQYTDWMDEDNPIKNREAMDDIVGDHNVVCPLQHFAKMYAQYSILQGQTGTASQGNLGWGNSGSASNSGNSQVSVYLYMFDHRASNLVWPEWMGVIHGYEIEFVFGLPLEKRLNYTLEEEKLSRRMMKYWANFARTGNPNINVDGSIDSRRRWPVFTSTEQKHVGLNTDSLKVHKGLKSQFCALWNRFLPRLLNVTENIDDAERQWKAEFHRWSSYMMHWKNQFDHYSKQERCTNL
T1 sequence (P05067 672-713 limits assumed): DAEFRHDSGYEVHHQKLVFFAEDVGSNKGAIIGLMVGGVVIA

For orientation: inhibition means the share of the control response that was lost under treatment. Broadly, the IC50 is the concentration at which inhibition is half-maximal. Regarding `O=C(NCCCNc1c2c(nc3ccccc13)CCCC2)c1cc2ccccc2o1` [Compound 13, N-(3-((1,2,3,4-tetrahydroacridin-9-yl)amino)propyl)benzofuran-2-carboxamide], the inhibition at 80 µM at Aβ1-42 [1] (setting [4]) was 60.6%. On AChE (setting [5]), the IC50 was 580 nM.

Regarding `O=C(NCCCCNc1c2c(nc3ccccc13)CCCC2)c1cc2ccccc2o1` [Compound 14, N-(4-((1,2,3,4-tetrahydroacridin-9-yl)amino)butyl)benzofuran-2-carboxamide], the inhibition at 80 µM on Aβ1-42 [1] (setting [4]) was 51.5%. Besides, the IC50 at AChE (setting [5]) stood at 720 nM.

As for `O=C(NCCCNc1c2c(nc3cc(Cl)ccc13)CCCC2)c1cc2ccccc2o1` [Compound 15, N-(3-((6-chloro-1,2,3,4-tetrahydroacridin-9-yl)amino)propyl)benzofuran-2-carboxamide], on Aβ1-42 [1] (setting [4]), the inhibition at 80 µM was 51%. For the same compound, the IC50 at AChE (setting [5]) stood at 120 nM.

As for `O=C(NCCCCNc1c2c(nc3cc(Cl)ccc13)CCCC2)c1cc2ccccc2o1` [Compound 16, N-(4-((6-chloro-1,2,3,4-tetrahydroacridin-9-yl)amino)butyl)benzofuran-2-carboxamide], the inhibition at 80 µM on Aβ1-42 [1] (setting [4]) was 43%. In addition, the IC50 at AChE (setting [5]) is 340 nM.

On to `COc1cccc2cc(C(=O)NCCCNc3c4c(nc5ccccc35)CCCC4)oc12` [Compound 17, 7-Methoxy-N-(3-((1,2,3,4-tetrahydroacridin-9-yl)amino)propyl)benzofuran-2-carboxamide], for which the inhibition at 80 µM at Aβ1-42 [1] (setting [4]) turned out to be 57.5%. Further, the IC50 at AChE (setting [5]) was 360 nM.

Take `COc1cccc2cc(C(=O)NCCCCNc3c4c(nc5ccccc35)CCCC4)oc12` [Compound 18, 7-Methoxy-N-(4-((1,2,3,4-tetrahydroacridin-9-yl)amino)butyl)benzofuran-2-carboxamide]: at Aβ1-42 [1], the inhibition at 80 µM was 51.9%. Also, the “highest non-toxic concentration selected from dose-response screening” value in the data set on SH-SY5Y cells is given as 20 µM. This compound came in with an IC50 at AChE of 760 nM.

As to `O=C(NCCCCNc1c2c(nc3ccccc13)CCCC2)c1cc2cccc(O)c2o1` [Compound 22, 7-Hydroxy-N-(4-((1,2,3,4-tetrahydroacridin-9-yl)amino)butyl)benzofuran-2-carboxamide], the inhibition at 80 µM on Aβ1-42 [2] was found to be 54%; on Aβ1-42 [1] (setting [4]) it was 30.4%. Besides, the IC50 on AChE (setting [5]) came out at 980 nM.

Take `Nc1c2c(nc3ccccc13)CCCC2` [TAC, tacrine, reference compound]: the “Radical scavenging activity EC50 (DPPH)” value in data set [3] was “weak activity”. The inhibition at 80 µM on Aβ1-42 [1] amounted to 20%.
